The values below come from PMC7733455, “A novel multistage antiplasmodial inhibitor targeting Plasmodium falciparum histone deacetylase 1” (Cell Discovery, 2020).

One data set has as its system P. falciparum 3D7. Kind of data set: Ring-stage survival assay (RSA), sensitive strain 3D7. The format is cell-based, Plasmodium falciparum. Particulars: 700 nM.
The subject of the next data set is 3D7^HDA1-glmS. Kind of data set: Sensitivity of transgenic parasites to JX21108, 3D7^HDA1-glmS. Format: cell-based. Particulars: Plasmodium falciparum, 3D7, 4 h, read-out: EC50 for 3D7^HDA1-glmS. As to the method:
(§1) Highly synchronized schizont-stage parasites were prepared and treated as described above, with adjustments. […] After washing, parasites were cultured in new CM for another 68 h. Parasite growth was monitored by SYBR Green I staining, as described above. The EC50 was calculated by GraphPad Prism.

The subject of another data set is 3D7^HDAC1-TY1. Kind of data set: Sensitivity of transgenic parasites to JX21108, 3D7^HDAC1-TY1. Format: cell-based. The conditions noted are these: Plasmodium falciparum, 3D7, 4 h, read-out: EC50 for 3D7^HDAC1-TY1. As to the method:
as §1

The test system of data set [1] is parasite histone H3 acetylation. Put plainly: Western blot of histone H3 acetylation in parasites. The format is cell-based, Plasmodium falciparum. Particulars: 4 h treatment of asynchronous 3D7; quisinostat/JX21108 5 and 20 nM, SAHA 500 nM. As to the method:
Then the parasite samples were harvested and treated with 0.15% saponin to remove the RBC proteins and sonicated in 1% NP40 lysis buffer. After centrifugation at 12,000× g for 15 min, the supernatant was resuspended in a routine SDS loading buffer. Parasite proteins were separated by 10% SDS-PAGE and transferred onto PVDF membranes (Millipore). […] A2348) followed by a secondary antibody conjugated with HRP (Jackson Immuno Research Laboratories). The chemiluminescent HRP substrate Immobilon Western Kit (Millipore) was used for signal detection.
(In general: Immunoblotting shows a protein as a band on a membrane.)

In a further data set the target is T1, hHDAC2 (Homo sapiens, UniProt Q92769).
T1 construct: purchased BPS Bioscience 5002
T1 sequence (Q92769 whole entry): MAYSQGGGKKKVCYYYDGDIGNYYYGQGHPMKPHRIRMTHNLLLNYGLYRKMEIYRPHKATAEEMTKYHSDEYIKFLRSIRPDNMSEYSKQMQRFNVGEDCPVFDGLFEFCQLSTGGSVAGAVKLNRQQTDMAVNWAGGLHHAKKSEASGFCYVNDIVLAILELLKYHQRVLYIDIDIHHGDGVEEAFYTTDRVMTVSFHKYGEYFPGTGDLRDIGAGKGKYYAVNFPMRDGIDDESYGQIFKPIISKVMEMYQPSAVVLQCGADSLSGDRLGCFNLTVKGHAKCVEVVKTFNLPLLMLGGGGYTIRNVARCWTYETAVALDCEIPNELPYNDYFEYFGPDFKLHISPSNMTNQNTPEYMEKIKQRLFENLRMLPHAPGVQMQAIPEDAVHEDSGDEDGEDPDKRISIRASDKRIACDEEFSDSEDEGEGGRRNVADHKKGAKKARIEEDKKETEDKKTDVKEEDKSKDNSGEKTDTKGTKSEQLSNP
Put plainly: Human HDAC inhibition assay, hHDAC2. The conditions noted are these: performed only once; read-out: Inhibitory Activity IC50, hHDAC2. Format: biochemical. As to the method:
(§2) SAHA and suramin were used as positive controls. The tested compounds were dissolved into 20 mM stock in 100% DMSO. […] Ten microliters of trypsin and Ac-peptide substrate/Tris buffer solution were added to start the reaction, followed by a 1-h incubation at room temperature for HDACs 1–3 and 6. Ten microliters of Ac-peptide substrate/Tris buffer solution was added to start the reaction, followed by a 4-h incubation at room temperature and a further 2-h incubation with trypsin solution for HDAC8 and Sirt 2. […] This experiment was performed only once.

The test system of data set [2] is P. falciparum clinical isolates 6218 and 6320. Kind of data set: Ring-stage survival assay (RSA), isolates 6218 and 6320. The format is cell-based, Plasmodium falciparum. Particulars: 700 nM, isolates 6218 and 6320. As to the method:
An RSA was performed as described previously[65] to evaluate the activity of JX21108 against the artemisinin- and piperaquine-resistant P. falciparum clinical isolates 6218 and 6320[43]. Briefly, parasites were highly synchronized at 0–3 hpi by a 60%/40%-Percoll gradient[66] followed by 5% D-sorbitol[67] treatment after 3 h. The parasite suspension (0.5%–1% parasitemia, 2% hematocrit) was incubated with compounds at 700 nM in a total volume of 2 mL in a 48-well plate for 6 h. After that, the culture mixture was washed three times with 15 mL of CM before another 66 h of cultivation with CM. A Giemsa-stained blood smear was made after cultivation. Parasitemia was counted from at least 10,000 RBCs by microscopy. The survival rate was calculated as the percentage of that in DMSO control. DHA at a concentration of 700 nM served as a positive control.

Another data set deals with T2, hHDAC1 (Homo sapiens, UniProt Q13547).
T2 construct: purchased BPS Bioscience 50058
T2 sequence (Q13547 whole entry): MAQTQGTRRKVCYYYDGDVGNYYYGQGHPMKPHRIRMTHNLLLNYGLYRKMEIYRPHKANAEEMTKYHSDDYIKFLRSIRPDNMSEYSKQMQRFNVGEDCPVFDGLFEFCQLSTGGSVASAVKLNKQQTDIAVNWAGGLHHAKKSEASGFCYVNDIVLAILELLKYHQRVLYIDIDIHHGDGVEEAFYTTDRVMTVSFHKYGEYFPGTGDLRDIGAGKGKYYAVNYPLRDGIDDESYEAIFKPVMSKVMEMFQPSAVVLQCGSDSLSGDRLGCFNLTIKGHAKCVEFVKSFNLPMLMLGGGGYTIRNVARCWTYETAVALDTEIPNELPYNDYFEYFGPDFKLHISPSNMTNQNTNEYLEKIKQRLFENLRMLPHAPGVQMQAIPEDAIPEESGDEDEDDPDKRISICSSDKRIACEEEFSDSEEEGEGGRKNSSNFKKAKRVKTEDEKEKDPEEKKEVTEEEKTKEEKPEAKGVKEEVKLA
Put plainly: Human HDAC inhibition assay, hHDAC1. The format is biochemical. Particulars: performed only once; read-out: Inhibitory Activity IC50, hHDAC1. As to the method: as §2

Data set [3] relates to drug-sensitive and multidrug-resistant strains of P. falciparum. Put plainly: 3-day SYBR Green I GIA, summary over several strains. Format: cell-based. Particulars: Plasmodium falciparum. As to the method:
(§3) A 3-day SYBR Green I inhibition EC50 assay was performed as described previously. Briefly, highly synchronized ring-stage parasites by 5% sorbitol (1% parasitemia and 2% hematocrit) were incubated in a 96-well plate with compounds in a total volume of 200 μL. […] The parasites were cultured for 72 h before SYBR Green I staining as described above. The EC50 was calculated by GraphPad Prism. DHA was used as a positive control, and the final concentration of DMSO was 1%.

Data set [4] is described as follows: Liver microsome metabolism assay, mouse. Format: in vitro ADME. The conditions noted are these: for half-life at 1 µM: mouse, liver microsomes. As to the method:
Liver microsomes (0.5 mg/mL) were purchased from Corning. Ketanserin was selected as a positive control. The tested compounds were first dissolved in DMSO to a concentration of 10 mM and then diluted to 0.5 mM with acetonitrile. Liver microsome buffer was used to dilute the compounds to a working concentration of 1.5 µM, 30 µL of which was mixed with 15 µL of 6 mM NADPH at 37 °C. At 0, 5, 15, 30, and 45 min after incubation, 135 µL of acetonitrile was added to quench the reaction. The mixture was shaken on a vortex mixer (IKA, MTS 2/4) for 10 min at 600 rpm/min and then centrifuged at 5594× g for 15 min (Thermo Multifuge×3R). The supernatant was diluted 1:1 into distilled water, and analyzed by LC-MS/MS.

Another data set relates to P. falciparum C2A. Kind of data set: 3-day SYBR Green I GIA, strain C2A. Format: cell-based. Particulars: Plasmodium falciparum, read-out: Resistant isolates EC50, C2A. As to the method:
as §3

Data set [5] concerns asynchronous 3D7 parasites. Kind of data set: Time- and dose-dependent parasite inhibition assay. Format: cell-based, Plasmodium falciparum. As to the method:
Asynchronous parasites (2% parasitemia, 4% hematocrit) were treated with the tested compounds at a concentration of 10, 30, 60, or 100 nM, respectively. At 3, 6, 12, and 24 h post treatment, parasitemia of each sample was detected by flow cytometry to investigate the time-dependent activity. Parasites from the same treatment were further washed to remove compounds, and parasitemia was diluted 1:40 by new RBCs into CM for an additional 4 days of culture. Parasitemia of each sample was detected by flow cytometry as described above to investigate the dose-dependent activity. DMSO was used as a blank control.

A further data set has as its system P. falciparum CP286. Kind of data set: 3-day SYBR Green I GIA, strain CP286. The format is cell-based. Particulars: Plasmodium falciparum; CP286 resistant to pyrimethamine and chloroquine; read-out: Resistant isolates EC50, CP286. As to the method: as §3

Structures are written as SMILES. Like-named read-outs stand apart in the source and are kept apart here.

As to `Cl.Cn1cc(CN2CCC3(CCN(c4ncc(C(=O)NO)cn4)C3)C2)c2cc(C#N)ccc21` (centres unmarked) [JX21108], the “RSA effect on ring-stage parasites of 3D7” value with P. falciparum 3D7 is “efficiently killed the ring-stage parasites”. Also, the EC50 (as a rule, the concentration giving half of the maximal effect) in the data set on 3D7^HDA1-glmS is 210 ± 25 nM; in the data set on 3D7^HDAC1-TY1, 114 ± 26.5 nM; in data set [3] (three strains tested, read-out: EC50 values on strains GB4, C2A and CP286), 2 to 8 nM; in [3] (variety of geographically representative strains, read-out: EC50 against drug-sensitive and multidrug-resistant strains of P. falciparum) it was 2 to 7 nM; in the data set with P. falciparum C2A, 2.9 ± 0.7 nM; in the data set on P. falciparum CP286 it was 7 ± 0.6 nM. Further, the “pan-acetylation levels of parasite histone H3” value in data set [1] is “greatly increased the pan-acetylation levels of parasite histone H3”. Further, the results for the IC50 on hHDAC2 and on hHDAC1 were 4.6 nM and 1.8 nM, respectively. Further, in [2], the “RSA effect on ring-stage parasites” value was “greatly inhibited parasite growth at ring stage of 6218 and 6320”. The CLint scaled at 1 µM in data set [4] (mouse liver microsomes, read-out: CL in liver microsomes) stood at 7.32 mL/min/kg. The half-life at 1 µM in data set [4] (read-out: T1/2 in liver microsomes) and in [4] (read-out: half-life in mouse liver microsomes (converted)) was 12.4 h each time. The “parasite growth after 3 h of treatment” value in data set [5] (100 nM, 3 h, washed, 4 days culture) is given as “completely blocked parasite growth”. In data set [5] (6-h treatment, washed, 1:40 dilution, 4 days culture), the “parasitemia measured 4 days after 6-h treatment” value is recorded as “substantial reduction in parasitemia”. Besides, the “asexual growth of 3D7 after 12- and 24-h treatments” value in data set [5] (10-100 nM, parasitemia immediately after treatment) was “significantly inhibited the asexual growth of 3D7 parasites”.
